The record followed here is ChEMBL document CHEMBL1134132, “Development of potent and selective factor Xa inhibitors” (Bioorg Med Chem Lett, 2001).

Usually pKi stands for the Ki on a negative log10 scale, so that one unit is a factor of ten. Low readings indicate a high Ki, high ones a low Ki.

pKi: −log10 of the molar value.

For test [1], the target named is Coagulation factor X (Homo sapiens, UniProt P00742). As to the kind of experiment: Inhibitory activity against Coagulation factor X in human plasma. Type of test: cell-free.
Coagulation factor X, sequence (P00742 41-179 limits assumed): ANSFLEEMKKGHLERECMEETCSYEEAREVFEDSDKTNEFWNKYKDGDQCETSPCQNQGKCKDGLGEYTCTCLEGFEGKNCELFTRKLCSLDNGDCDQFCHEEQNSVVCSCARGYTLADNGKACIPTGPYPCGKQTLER
Coagulation factor X, sequence (P00742 235-488 limits assumed): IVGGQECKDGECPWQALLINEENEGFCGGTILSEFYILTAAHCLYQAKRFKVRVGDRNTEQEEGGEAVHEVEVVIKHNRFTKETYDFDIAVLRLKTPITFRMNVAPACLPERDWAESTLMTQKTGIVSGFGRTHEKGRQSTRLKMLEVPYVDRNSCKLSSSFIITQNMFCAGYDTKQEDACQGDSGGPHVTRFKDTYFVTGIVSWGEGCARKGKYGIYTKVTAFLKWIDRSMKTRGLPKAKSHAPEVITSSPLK
Test [2] has as its target Prothrombin (Homo sapiens, UniProt P00734). The test can be described thus: Inhibitory activity against thrombin(fIIa) in human plasma. Type of test: cell-free.
Test [3] concerns the target Plasminogen (Homo sapiens, UniProt P00747). The test can be described thus: Inhibitory activity against plasmin in human plasma. Type of test: cell-free.
The target in test [4] is Serine protease 1 (Homo sapiens, UniProt P07477). As to the kind of experiment: Inhibitory activity against trypsin in human plasma. Type of test: cell-free.
Serine protease 1, sequence (P07477 whole entry): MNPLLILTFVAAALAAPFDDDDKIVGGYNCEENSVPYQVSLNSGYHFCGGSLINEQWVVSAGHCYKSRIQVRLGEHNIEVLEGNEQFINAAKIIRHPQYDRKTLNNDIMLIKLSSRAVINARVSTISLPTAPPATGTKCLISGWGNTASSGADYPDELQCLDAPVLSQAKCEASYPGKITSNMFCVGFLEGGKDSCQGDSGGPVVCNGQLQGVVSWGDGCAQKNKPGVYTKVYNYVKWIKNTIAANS
Test [5] concerns the target Urokinase-type plasminogen activator (Homo sapiens, UniProt P00749).
Test [6] can be described thus: In vitro anticoagulant effect to double the activated partial thromboplastin time in human plasma. Type of test: functional.

Plasminogen, sequence (P00747 97-580 limits assumed): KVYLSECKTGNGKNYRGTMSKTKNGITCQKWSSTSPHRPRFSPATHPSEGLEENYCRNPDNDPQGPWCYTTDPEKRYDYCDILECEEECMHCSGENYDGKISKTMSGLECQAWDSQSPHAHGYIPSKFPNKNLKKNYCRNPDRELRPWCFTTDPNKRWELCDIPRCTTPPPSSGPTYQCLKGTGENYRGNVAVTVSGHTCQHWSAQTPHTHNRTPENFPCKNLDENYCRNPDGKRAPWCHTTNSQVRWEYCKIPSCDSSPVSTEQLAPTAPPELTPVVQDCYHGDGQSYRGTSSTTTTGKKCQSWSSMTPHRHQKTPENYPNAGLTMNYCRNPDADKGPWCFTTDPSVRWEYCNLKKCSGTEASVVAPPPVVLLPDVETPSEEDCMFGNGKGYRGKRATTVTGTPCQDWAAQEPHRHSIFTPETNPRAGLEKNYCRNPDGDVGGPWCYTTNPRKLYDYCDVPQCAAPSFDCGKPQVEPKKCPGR
Plasminogen, sequence (P00747 581-810 limits assumed): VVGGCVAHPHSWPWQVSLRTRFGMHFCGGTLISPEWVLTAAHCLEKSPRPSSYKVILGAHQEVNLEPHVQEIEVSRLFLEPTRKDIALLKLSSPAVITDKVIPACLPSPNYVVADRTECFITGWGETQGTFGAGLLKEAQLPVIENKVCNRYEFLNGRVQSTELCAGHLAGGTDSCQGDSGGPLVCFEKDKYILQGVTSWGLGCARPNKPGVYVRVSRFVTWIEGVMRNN

Consider `O=C(O)CCc1cc(Br)c(O)c(-c2[nH]c3ccccc3c2Cc2ccccc2)c1`, for which the results for the negative logarithm of the Ki (pKi) in test [1] and in test [2] were 3.52 and 3.15, respectively.
As to `Cc1cc(Br)c(O)c(-c2[nH]c3ccc(C(=N)N)cc3c2CCCc2ccccc2)c1`, the pKi in test [1] was 5.12; in test [3], 4.49; in test [2], 5.18; in test [4], 4.38; in test [5] it was 5.07.
As to `N=C(N)c1ccc2[nH]c(-c3cc(CCC(=O)O)cc(Br)c3O)c(Cc3ccccc3)c2c1`, the pKi was 9.30 in test [1]; 5.77 in test [3]; 6.92 in test [2]; 6.22 in test [4]; 6.55 in test [5]. In test [6], the “2x aPPT” value is 0.52 µM.
Turning to `COC(=O)Cc1cc(Br)c(O)c(-c2[nH]c3ccc(C(=N)N)cc3c2Cc2ccccc2)c1`, the pKi in test [1] is 8.52; in test [2], 7.10.
As to `N=C(N)c1ccc2[nH]c(-c3cc(C(=O)O)cc(Br)c3O)c(Cc3ccccc3)c2c1`, the pKi is 8.40 in test [1], 5.82 in test [3] and 6.36 in test [4]. Also, in test [6], the “2x aPPT” value worked out at 0.55 µM.
`NC(=O)c1ccc2[nH]c(-c3cc(CCC(=O)O)cc(Br)c3O)c(Cc3ccccc3)c2c1` had a pKi in test [2] of 4.11.
With `Cc1cc(Br)c(O)c(-c2cc3cc(C(=N)N)ccc3[nH]2)c1`, the pKi was 7.00 in test [1]; 5.92 in test [3]; 6.44 in test [2]; 6.19 in test [4]; 6.96 in test [5].
`N=C(N)c1ccc2[nH]c(-c3cc(Br)cc(CCC(=O)O)c3)c(Cc3ccccc3)c2c1`: the pKi in test [1] is 6.00; in test [2], 4.92.
Regarding `N=C(N)c1ccc2[nH]c(-c3cc(Cc4nn[nH]n4)cc(Br)c3O)c(Cc3ccccc3)c2c1`, the pKi in test [1] was 7.70; in test [3], 5.66; in test [2], 6.36; in test [4] it was 6.08; in test [5], 6.46. Besides, the “2x aPPT” value in test [6] came out at 0.59 µM.
For the compound `CN(C)C(=O)Cc1cc(Br)c(O)c(-c2[nH]c3ccc(C(=N)N)cc3c2Cc2ccccc2)c1`, the pKi in test [1] is 8.70; in test [2] it was 7.37.
Consider `N=C(N)c1ccc2[nH]c(-c3cc(CCCC(=O)O)cc(Br)c3O)c(Cc3ccccc3)c2c1`, for which the pKi in test [1] was 9.15; in test [3], 5.82; in test [2], 7.40; in test [4], 6.21; in test [5], 6.57. Further, in test [6], the “2x aPPT” value turned out to be 0.75 µM.
In the case of `COc1c(Br)cc(CCC(=O)O)cc1-c1[nH]c2ccc(C(=N)N)cc2c1Cc1ccccc1`, the values for the pKi in test [1] and in test [2] were 7.35 and 5.60, respectively.
Regarding `N=C(N)c1ccc2[nH]c(-c3cc(CC(=O)O)cc(Br)c3O)c(Cc3ccccc3)c2c1`, the negative-log Ki (pKi) was 8.52 in test [1]; 5.74 in test [3]; 6.00 in test [2]; 5.92 in test [4]; 6.37 in test [5]. Moreover, in test [6], the “2x aPPT” value was found to be 0.38 µM.
Take `Cc1cc(Br)c(O)c(-c2[nH]c3ccc(C(=N)N)cc3c2Cc2ccccc2)c1`: the pKi in test [1] was 7.70; in test [3], 5.34; in test [2], 6.59; in test [4], 5.62; in test [5], 5.80. Further, the “2x aPPT” value in test [6] is 3.9 µM.
Consider `CC(C)(C(=O)O)c1cc(Br)c(O)c(-c2[nH]c3ccc(C(=N)N)cc3c2Cc2ccccc2)c1`, for which the pKi in test [1] was 8.00; in test [3], 5.52; in test [2], 6.12; in test [4] it was 5.89; in test [5], 6.46. In test [6], the “2x aPPT” value was 0.93 µM.
On to `Cc1cc(-c2ccccc2)c(O)c(-c2cc3cc(C(=N)N)ccc3[nH]2)c1`, for which the pKi in test [1] is 6.19; in test [3] it was 5.82; in test [2], 5.40; in test [4], 5.74; in test [5] it was 6.96.
On to `N=C(N)c1ccc2[nH]c(-c3cc(CC(N)=O)cc(Br)c3O)c(Cc3ccccc3)c2c1`, for which the pKi is 8.70 in test [1] and 7.60 in test [2].
For `N=C(N)c1ccc2[nH]c(-c3cc(-c4nn[nH]n4)cc(Br)c3O)c(Cc3ccccc3)c2c1`, the pKi in test [1] is 8.00; in test [3], 5.38; in test [2] it was 6.46; in test [4], 5.89; in test [5], 6.26. In addition, the “2x aPPT” value in test [6] was found to be 0.7 µM.
For `N=C(N)c1ccc2[nH]c(-c3cc(CCOP(=O)(O)O)cc(Br)c3O)c(Cc3ccccc3)c2c1`, the pKi in test [1] was 9.30; in test [3], 5.92; in test [2], 6.48; in test [4], 5.42; in test [5], 6.40. The “2x aPPT” value in test [6] came out at 0.42 µM.
`Cc1cc(Br)c(O)c(-c2[nH]c3ccc(C(=N)N)cc3c2CCc2ccccc2)c1`: the pKi was 6.46 in test [1]; 5.06 in test [3]; 6.15 in test [2]; 5.47 in test [4]; 5.64 in test [5].
The matching figures for `Cc1cc(Cl)c(O)c(-c2cc3cc(C(=N)N)ccc3[nH]2)c1`: 6.89, 6.00, 6.34, 6.15 and 6.72.
The matching figures for `Cc1cc(C)c(O)c(-c2cc3cc(C(=N)N)ccc3[nH]2)c1`: 5.92, 5.00, 5.16, 5.30 and 5.64.
Take `Cc1ccc(O)c(-c2cc3cc(C(=N)N)ccc3[nH]2)c1`: the negative-log Ki (pKi) in test [3] is 4.68; in test [2] it was 4.64; in test [4], 5.09; in test [5], 4.91.
